Assays:
[1] = tested on: Mia-Paca-2 pancreatic cancer cells; assay: WST-1 cell viability assay; type: cell-based; settings: Mia-Paca-2 pancreatic cells
Method: (§1) Compound Compound 9A was tested for the ability to inhibit the proliferation of Mia-Paca-2 pancreatic cancer cells. Mia-Paca-2 and MDA-MB-231 cells were seeded into the wells of a 96 well tissue culture plate in complete medium (10% fetal calf serum) and incubated overnight at 37° C./5% CO2). The medium was exchanged for fresh medium containing varying concentrations of Compound 9A and the plate was incubated for 72 hours at 37° C./5% CO2. The viability of cells at the end of this incubation was assessed with the WST-1 reagent. To 10 ml of warm (37° C.) complete medium, 1 ml WST-1 reagent was added. The medium from the wells of the plate with the Mia-Paca-2 cells was removed and replaced with 100 μL of the WST-1 reagent in complete medium. The plate was incubated at 37 37° C./5% CO2. At timed intervals the absorbance at 450 nm was determined for each well in a UVNis plate reader. For each well the slope of the plot of the absorbance 450 nm vs time was determined. The readings were normalized to that of the wells for the untreated control and a dose-response curve was plotted. A fit to the data was made from a four parameter, variable slope program (GraphPad Prism) and the IC50 was determined.
(§2) The same procedures were also applied to the compounds Compound 7A, Compound 6A, and Compound 8A to test their inhibitory activities against RKO colon, Mia-Paca-2 pancreatic and BT-549 cancer cells.

[2] = tested on: RKO colon cells; assay: WST-1 cell viability assay; type: cell-based
Method: as §1, §2

[3] = tested on: SK-BR3 breast cancer cells; assay: WST-1 cell viability assay; type: cell-based; settings: Homo sapiens, SK-BR-3, 72-hour treatment, read-out: IC50, inhibiting proliferation
Method: as §1
Another substrate of USP9X is the receptor tyrosine kinase erbB2. […] The breast cancer cell line SK-BR3 expresses high levels of erbB2. […]

[4] = tested on: A-172; assay: ONCOLINES Profiler proliferation; type: cell-based
Text: (§3) The compounds were profiled on an ONCOLINES™ Profiler (Netherlands Translational Research Center) assayed with 66 cancer cell lines to determine if they were capable of inhibiting the proliferation of these cancer cells.
(§4) To further evaluate potency of the compounds, they were compared with the USP9X inhibitor WP 1130 by screening both the compounds and WP1130 on a 66-cancer cell line panel ONCOLINES™ Profiler.

[5] = tested on: A549; assay: ONCOLINES Profiler proliferation; type: cell-based
Text: as §3, §4

[6] = tested on: BT-20; assay: ONCOLINES Profiler proliferation; type: cell-based
Text: as §3, §4

[7] = tested on: CCRF-CEM; assay: ONCOLINES Profiler proliferation; type: cell-based; settings: for IC50: acute lymphoblastic leukemia
Text: as §3, §4

[8] = tested on: DU 145; assay: ONCOLINES Profiler proliferation; type: cell-based
Text: as §3, §4

[9] = tested on: H82; assay: ONCOLINES Profiler proliferation; type: cell-based
Text: as §3, §4

[10] = tested on: Hs 57BT; assay: ONCOLINES Profiler proliferation; type: cell-based; settings: for IC50: Hs 57BT (Hs578T), breast carcinoma
Text: as §3, §4

[11] = tested on: LoVo; assay: ONCOLINES Profiler proliferation; type: cell-based; settings: for IC50: colorectal adenocarcinoma
Text: as §3, §4

[12] = tested on: MOLT-4; assay: ONCOLINES Profiler proliferation; type: cell-based
Text: as §3, §4

[13] = tested on: RKO; assay: ONCOLINES Profiler proliferation; type: cell-based; settings: for IC50: colon carcinoma
Text: as §3, §4

[14] = tested on: RPMI-7951; assay: ONCOLINES Profiler proliferation; type: cell-based
Text: as §3, §4

[15] = tested on: A375; assay: ONCOLINES Profiler proliferation; type: cell-based; settings: Homo sapiens, A-375; A375, malignant melanoma
Text: as §3

[16] = tested on: AN3 CA; assay: ONCOLINES Profiler proliferation; type: cell-based; settings: Homo sapiens, endometrium adenocarcinoma
Text: as §3

[17] = tested on: Daoy; assay: ONCOLINES Profiler proliferation; type: cell-based; settings: Homo sapiens, medulloblastoma
Text: as §3

[18] = tested on: DoTc2 4510; assay: ONCOLINES Profiler proliferation; type: cell-based; settings: Homo sapiens; DoTc2 4510, cervix carcinoma
Text: as §3

[19] = tested on: HCT-116; assay: ONCOLINES Profiler proliferation; type: cell-based; settings: Homo sapiens; HCT-116, colon carcinoma
Text: as §3

[20] = tested on: Jurkat E6.1; assay: ONCOLINES Profiler proliferation; type: cell-based; settings: Homo sapiens; Jurkat E6.1, T cell leukemia
Text: as §3

[21] = tested on: K-562; assay: ONCOLINES Profiler proliferation; type: cell-based; settings: Homo sapiens, K562; K-562, CML
Text: as §3

[22] = tested on: PA-1; assay: ONCOLINES Profiler proliferation; type: cell-based; settings: Homo sapiens; PA-1, ovary teratocarcinoma
Text: as §3

[23] = tested on: SK-N-AS; assay: ONCOLINES Profiler proliferation; type: cell-based; settings: Homo sapiens, neuroblastoma
Text: as §3

[24] = tested on: VA-ES-BJ; assay: ONCOLINES Profiler proliferation; type: cell-based; settings: epithelioid carcinoma, bone
Text: as §3

[25] = tested on: malignant melanoma cell line MWo; assay: ONCOLINES Profiler proliferation; type: cell-based
Text: as §3

[26] = tested on: erbB2; assay: Western blot of erbB2 in SK-BR3 cells; type: cell-based, human; settings: 72-hour treatment, 10 μm
Method: Another substrate of USP9X is the receptor tyrosine kinase erbB2. […] The breast cancer cell line SK-BR3 expresses high levels of erbB2. This cell line was treated with Compound 7A and the effects on cell viability as well as expression levels of erbB2 were examined.
Compound 7A inhibited the viability of SK-BR3. The levels of erbB2 were determined by Western blot and found to decrease in parallel with the decline in cell viability. After 72-hour treatment of 10 μm Compound 7A, the level of erbB2 declined to about zero. The loss of erbB2 from the plasma membrane was also confirmed by flow cytometry.

IC50 [3]: 2.7 µM
IC50 Ratio WP1130/Compound 7A ([5]; A549): 4.7
IC50 ([5]; Homo sapiens, A549, lung): 3 µM
IC50 Ratio WP1130/Compound 7A ([6]; BT-20): 3.6
IC50 ([6]; BT-20, breast carcinoma): 1.4 µM
IC50 ([6]; Homo sapiens, BT-20, BT-20, breast carcinoma): 1.39 µM
IC50 Ratio WP1130/Compound 7A [7]: 17.6
IC50 ([7]; Homo sapiens): 0.247 µM
IC50 [7]: 0.25 µM
IC50 Ratio WP1130/Compound 7A [11]: 8.6
IC50 ([11]; Homo sapiens): 0.635 µM
IC50 [11]: 0.64 µM
IC50 ([12]; Homo sapiens, MOLT-4, MOLT-4, acute lymphoblastic leukemia): 0.594 µM
IC50 Ratio WP1130/Compound 7A ([12]; MOLT-4): 6.8
IC50 ([12]; MOLT-4, acute lymphoblastic leukemia): 0.59 µM
IC50 [15]: 2.02 µM
IC50 [19]: 2.39 µM
IC50 [20]: 0.548 µM
IC50 [21]: 0.486 µM
IC50 [23]: 1.72 µM
IC50 [25]: > 32 µM
Structure (SMILES): CN1CCOc2ccc(cc2)C(=O)NCc2ccc(F)c(c2)C(=O)N[C@@H](CC(C)(C)C)C(=O)Nc2ccc(cc2)CCN(C)C(=O)CC(C)(C)CC1=O [Compound 7A]
cell viability [1]: significant decreases
cell viability [2]: significant decreases
IC50 Ratio WP1130/Compound 7A ([4]; A-172): 5.1
IC50 ([4]; A-172, glioblastoma): 1.1 µM
IC50 ([4]; Homo sapiens, A 172, A-172, glioblastoma): 1.07 µM
IC50 Ratio WP1130/Compound 7A ([8]; DU145): 4.8
IC50 ([8]; DU 145, prostate carcinoma): 2 µM
IC50 ([8]; Homo sapiens, DU-145, DU 145, prostate carcinoma): 2.01 µM
IC50 Ratio WP1130/Compound 7A ([9]; H82): 6.0
IC50 ([9]; Homo sapiens, NCI-H82, H82, small cell lung): 1.1 µM
IC50 ([10]; Homo sapiens, Hs-578T): 1.41 µM
IC50 [10]: 1.4 µM
IC50 Ratio WP1130/Compound 7A ([10]; Hs578T): 4.5
IC50 Ratio WP1130/Compound 7A [13]: 4.9
IC50 ([13]; Homo sapiens): 0.88 µM
IC50 [13]: 0.683 µM
IC50 ([14]; Homo sapiens, RPMI-7951, RPMI-7951, malignant melanoma): 1.2 µM
IC50 Ratio WP1130/Compound 7A ([14]; RPMI7951): 3.5
IC50 ([14]; RPMI-7951, malignant melanoma): 1.2 µM
IC50 [16]: 0.66 µM
IC50 [17]: 3.38 µM
IC50 [18]: 0.963 µM
IC50 [22]: 2.07 µM
IC50 [24]: 0.682 µM
level of erbB2 declined to [26]: about zero
